# Values of other authors as cited in publication PMC11790914, “Chemogenomics for steroid hormone receptors (NR3)” (Communications Chemistry, 2025).
# Conditions: other targets with annotated bioactivities at ≤10 µM in previously published dataset; cited from earlier work
row,SMILES,Reason for exclusion: number of annotated off-targets
1,C[C@]12CC[C@@H]3c4ccc(O)cc4CC[C@H]3[C@@H]1CC[C@@H]2O [17β-Estradiol],> 5 off-targets
2,"CCC(=C(c1ccc(O)cc1)c1ccc(OCCN(C)C)cc1)c1ccccc1 [(E,Z)-Hydroxytamoxifen]",> 5 off-targets
3,CC(O)(CS(=O)(=O)c1ccc(F)cc1)C(=O)Nc1ccc(C#N)c(C(F)(F)F)c1 (stereo not shown) [Bicalutamide],> 5 off-targets
4,O=c1oc2cc(O)ccc2c2oc3cc(O)ccc3c12 [Coumestrol],> 5 off-targets
5,O=c1c(-c2ccc(O)cc2)coc2cc(O)ccc12 [Daidzein],> 5 off-targets
6,C[C@]12CCC(=O)C[C@@H]1CC[C@@H]1[C@@H]2CC[C@]2(C)[C@@H](O)CC[C@@H]12 [Dihydrotestosterone],> 5 off-targets
7,C/C=C1/C(=O)C[C@H]2[C@@H]3CCC4=CC(=O)CC[C@]4(C)[C@H]3CC[C@]12C [E-Guggulsterone],> 5 off-targets
8,CCN(CC)CCOc1ccc(/C(=C(/Cl)c2ccccc2)c2ccccc2)cc1.Cl [Enclomiphene hydrochloride],> 5 off-targets
9,C[C@]12CC[C@@H]3c4ccc(OC(=O)c5ccccc5)cc4CC[C@H]3[C@@H]1CC[C@@H]2O [Estradiol benzoate],> 5 off-targets
10,C[C@]12CC[C@@H]3c4ccc(O)cc4CC[C@H]3[C@@H]1C[C@@H](O)[C@@H]2O [Estriol],> 5 off-targets
11,CC(C)C(=O)Nc1ccc([N+](=O)[O-])c(C(F)(F)F)c1 [Flutamide],> 5 off-targets
12,C[C@@H]1C[C@H]2[C@@H]3C[C@H](F)C4=CC(=O)C=C[C@]4(C)[C@@]3(F)[C@@H](O)C[C@]2(C)[C@@]1(OC(=O)c1ccco1)C(=O)SCF [Fluticasone furoate],> 5 off-targets
13,C[C@]12CC[C@H](O)CC1=CC[C@@H]1[C@@H]2CC[C@]2(C)C(n3cnc4ccccc43)=CC[C@@H]12 [Galeterone],> 5 off-targets
14,O=c1c(-c2ccc(O)cc2)coc2cc(O)cc(O)c12 [Genistein],> 5 off-targets
15,Oc1c(Cl)cc(Cl)c(Cl)c1Cc1c(O)c(Cl)cc(Cl)c1Cl [Hexachlorophene],> 5 off-targets
16,CC(=O)[C@@]1(O)CC[C@H]2[C@@H]3CCC4=CC(=O)CC[C@]4(C)[C@H]3CC[C@@]21C [Hydroxyprogesterone],> 5 off-targets
17,COc1ccc2c(c1)c(CC(=O)O)c(C)n2C(=O)c1ccc(Cl)cc1 [Indomethacin],> 5 off-targets
18,CC(=O)O[C@]1(C(C)=O)CC[C@H]2[C@@H]3C[C@H](C)C4=CC(=O)CC[C@]4(C)[C@H]3CC[C@@]21C [Medroxyprogesterone acetate],> 5 off-targets
19,COc1cc([C@@H]2c3cc4c(cc3[C@H](O)[C@H]3COC(=O)[C@H]23)OCO4)cc(OC)c1OC [Podophyllotoxin],> 5 off-targets
20,C[C@]12C=CC(=O)C=C1CC[C@@H]1[C@@H]2[C@@H](O)C[C@@]2(C)[C@H]1CC[C@]2(O)C(=O)CO [Prednisolone],> 5 off-targets
21,CC(=O)[C@H]1CC[C@H]2[C@@H]3CCC4=CC(=O)CC[C@]4(C)[C@H]3CC[C@]12C [Progesterone],> 5 off-targets
22,CC(=O)S[C@@H]1CC2=CC(=O)CC[C@]2(C)[C@H]2CC[C@@]3(C)[C@@H](CC[C@@]34CCC(=O)O4)[C@H]12 [Spironolactone],> 5 off-targets
23,CC/C(=C(\c1ccccc1)c1ccc(OCCN(C)C)cc1)c1ccccc1 [Tamoxifen],> 5 off-targets
24,C[C@]12CC[C@H]3[C@@H](CCC4=CC(=O)CC[C@@]43C)[C@@H]1CC[C@@H]2O [Testosterone],> 5 off-targets
25,C[C@]12C=CC(=O)C=C1CC[C@H]1[C@@H]3C[C@@H](O)[C@](O)(C(=O)CO)[C@@]3(C)C[C@H](O)[C@@]12F [Triamcinolone],> 5 off-targets
